Data published in patent publication US9850225B2, “Compounds useful as immunomodulators” (BRISTOL-MYERS SQUIBB COMPANY, priority 2014, dated 2017).

These molecules were tested against PD-1/PD-L1 interaction (PD-1-Ig / PD-L1-His) (Homo sapiens (Human), UniProt Q9NZQ7) (assay: PD-1/PD-L1 Homogenous Time-Resolved Fluorescence (HTRF) binding assay). Details: PD-1/PD-L1 HTRF binding assay; value given as range class; read-out: Range or IC50.
PD-1/PD-L1 interaction (PD-1-Ig / PD-L1-His), sequence (Q9NZQ7 other isoform, or with tags, fused parts or gaps): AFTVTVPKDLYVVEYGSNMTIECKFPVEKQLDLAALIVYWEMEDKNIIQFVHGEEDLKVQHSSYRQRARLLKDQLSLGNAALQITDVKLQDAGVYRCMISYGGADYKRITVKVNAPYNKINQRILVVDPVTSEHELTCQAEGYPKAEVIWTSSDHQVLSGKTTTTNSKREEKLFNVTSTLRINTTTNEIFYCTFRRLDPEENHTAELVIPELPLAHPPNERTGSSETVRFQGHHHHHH
How it was run: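 HTRF detection used 1 nM europium-cryptate anti-Ig and 20 nM APC anti-His. Compounds first saw 10 nM PD-L1-His for 15 min, and 20 nM PD-1-Ig was then added for another 15 min. Buffer was dPBS plus 0.1% BSA and 0.05% Tween-20. All concentrations are final.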
`Cc1c(COc2ccc(CN[C@](C)(CO)C(=O)O)c(OCc3cc(C#N)ccn3)c2)cccc1-c1ccc2c(c1)OCCO2` [Example 1131, (R)-2-(2-((4-cyanopyridin-2-yl)methoxy)-4-(3-(2,3-dihydrobenzo[b][1,4]dioxin-6-yl)-2-methylbenzyloxy)benzylamino)-3-hydroxy-2-methylpropanoic acid] was tested, and the IC50 was 0.6 to 10 nM. For `Cc1c(COc2ccc(CN3CCCC[C@H]3C(=O)O)c(OCc3cc(C#N)ccn3)c2)cccc1-c1ccc2c(c1)OCCO2` [Example 1132, (S)-1-(2-((4-cyanopyridin-2-yl)methoxy)-4-(3-(2,3-dihydrobenzo[b][1,4]dioxin-6-yl)-2-methylbenzyloxy)benzyl)piperidine-2-carboxylic acid], the IC50 was 10 to 100 nM. `COc1cc(OCc2cccc(-c3ccccc3)c2C)cc(OCc2cccc(C#N)c2)c1CNC[C@@H](O)CC(=O)O` [Example 1133, (S)-4-((2-((3-cyanobenzyl)oxy)-6-methoxy-4-((2-methyl-[1,1′-biphenyl]-3-yl)methoxy)benzyl)amino)-3-hydroxybutanoic acid] showed an IC50 of 0.6 to 10 nM. For `COc1cc(OCc2cccc(-c3ccccc3)c2C)cc(OCc2cccc(C#N)c2)c1CN[C@H](CO)C(=O)O` [Example 1134, (R)-2-((2-((3-cyanobenzyl)oxy)-6-methoxy-4-((2-methyl-[1,1′-biphenyl]-3-yl)methoxy)benzyl)amino)-3-hydroxypropanoic acid], the IC50 was 0.6 to 10 nM. Work on `COc1cc(OCc2cccc(-c3ccccc3)c2C)cc(OCc2cccc(C#N)c2)c1CN[C@@H](C(=O)O)[C@H](C)O` [Example 1135, (2R,3S)-2-((2-((3-cyanobenzyl)oxy)-6-methoxy-4-((2-methyl-[1,1′-biphenyl]-3-yl)methoxy)benzyl)amino)-3-hydroxybutanoic acid] yielded an IC50 of 0.6 to 10 nM. `COc1cc(OCc2cccc(-c3ccccc3)c2C)cc(OCc2cccc(C#N)c2)c1CN[C@H](C(=O)O)[C@H](C)O` [Example 1136, (2S,3S)-2-((2-((3-cyanobenzyl)oxy)-6-methoxy-4-((2-methyl-[1,1′-biphenyl]-3-yl)methoxy)benzyl)amino)-3-hydroxybutanoic acid] showed an IC50 of 0.6 to 10 nM. `COc1cc(OCc2cccc(-c3ccccc3)c2C)cc(OCc2cccc(C#N)c2)c1CNC(C)(CO)C(=O)O` (stereo not drawn) [Example 1137, 2-((2-((3-cyanobenzyl)oxy)-6-methoxy-4-((2-methyl-[1,1′-biphenyl]-3-yl)methoxy)benzyl)amino)-3-hydroxy-2-methylpropanoic acid] showed an IC50 of 0.6 to 10 nM. `COc1cc(OCc2cccc(-c3ccccc3)c2C)cc(OCc2cccc(C#N)c2)c1CN[C@@H](C(=O)O)[C@@H](C)O` [Example 1138, (2R,3R)-2-((2-((3-cyanobenzyl)oxy)-6-methoxy-4-((2-methyl-[1,1′-biphenyl]-3-yl)methoxy)benzyl)amino)-3-hydroxybutanoic acid] gave an IC50 of 10 to 100 nM. For `COc1cc(OCc2cccc(-c3ccc4c(c3)OCCO4)c2C)cc(OCc2cccc(C#N)c2)c1CN[C@H](CO)C(=O)O` [Example 1139, (R)-2-((2-((3-cyanobenzyl)oxy)-4-((3-(2,3-dihydrobenzo[b][1,4]dioxin-6-yl)-2-methylbenzyl)oxy)-6-methoxybenzyl)amino)-3-hydroxypropanoic acid], the IC50 was 0.6 to 10 nM. `COc1cc(OCc2cccc(-c3ccc4c(c3)OCCO4)c2C)cc(OCc2cccc(C#N)c2)c1CNC[C@@H](O)CC(=O)O` [Example 1140, (S)-4-((2-((3-cyanobenzyl)oxy)-4-((3-(2,3-dihydrobenzo[b][1,4]dioxin-6-yl)-2-methylbenzyl)oxy)-6-methoxybenzyl)amino)-3-hydroxybutanoic acid] gave an IC50 of 0.6 to 10 nM. Work on `COc1cc(OCc2cccc(-c3ccc4c(c3)OCCO4)c2C)cc(OCc2cccc(C#N)c2)c1CN[C@@H](CO)C(=O)O` [Example 1141, (S)-2-((2-((3-cyanobenzyl)oxy)-4-((3-(2,3-dihydrobenzo[b][1,4]dioxin-6-yl)-2-methylbenzyl)oxy)-6-methoxybenzyl)amino)-3-hydroxypropanoic acid] yielded an IC50 of 0.6 to 10 nM. `COc1cc(OCc2cccc(-c3ccc4c(c3)OCCO4)c2C)cc(OCc2cccc(C#N)c2)c1CN[C@@](C)(CO)C(=O)O` [Example 1142, (S)-2-((2-((3-cyanobenzyl)oxy)-4-((3-(2,3-dihydrobenzo[b][1,4]dioxin-6-yl)-2-methylbenzyl)oxy)-6-methoxybenzyl)amino)-3-hydroxy-2-methylpropanoic acid] showed an IC50 of 0.6 to 10 nM. `Cc1c(COc2ccc(CN[C@H](CO)C(=O)O)c(OCCCCC#N)c2)cccc1-c1ccccc1` [Example 1143, (R)-2-((2-(4-cyanobutoxy)-4-((2-methyl-[1,1′-biphenyl]-3-yl)methoxy)benzyl)amino)-3-hydroxypropanoic acid] gave an IC50 of 0.6 to 10 nM. `Cc1c(COc2ccc(CNC[C@@H](O)CC(=O)O)c(OCCCCC#N)c2)cccc1-c1ccccc1` [Example 1144, (S)-4-((2-(4-cyanobutoxy)-4-((2-methyl-[1,1′-biphenyl]-3-yl)methoxy)benzyl)amino)-3-hydroxybutanoic acid] showed an IC50 of 0.6 to 10 nM. Molecule `N#Cc1cccc(COc2cc(OCc3cccc(-c4ccc5c(c4)OCCO5)c3Cl)ccc2CN2CCCC[C@H]2C(=O)O)c1` [Example 1145, (S)-1-(4-(2-chloro-3-(2,3-dihydrobenzo[b][1,4]dioxin-6-yl)benzyloxy)-2-(3-cyanobenzyloxyl)benzyl)piperidine-2-carboxylic acid] has an IC50 of 10 to 100 nM. With `N#Cc1cccc(COc2cc(OCc3cccc(-c4ccc5c(c4)OCCO5)c3Cl)ccc2CN[C@H](CO)C(=O)O)c1` [Example 1146, (R)-2-(4-(2-chloro-3-(2,3-dihydrobenzo[b][1,4]dioxin-6-yl)benzyloxy)-2-(3-cyanobenzyloxy)benzylamino)-3-hydroxypropanoic acid] the IC50 was 0.6 to 10 nM. In the case of `N#Cc1cccc(COc2cc(OCc3cccc(-c4ccc5c(c4)OCCO5)c3Cl)ccc2CNC[C@@H](O)CC(=O)O)c1` [Example 1147, (S)-4-(4-(2-chloro-3-(2,3-dihydrobenzo[b][1,4]dioxin-6-yl)benzyloxy)-2-(3-cyanobenzyloxy)benzylamino)-3-hydroxybutanoic acid], the IC50 is reported as 0.6 to 10 nM. `C[C@](CO)(NCc1ccc(OCc2cccc(-c3ccc4c(c3)OCCO4)c2Cl)cc1OCc1cccc(C#N)c1)C(=O)O` [Example 1148, (R)-2-(4-(2-chloro-3-(2,3-dihydrobenzo[b][1,4]dioxin-6-yl)benzyloxy)-2-(3-cyanobenzyloxy)benzylamino)-3-hydroxy-2-methylpropanoic acid] was tested, and the IC50 was 0.6 to 10 nM. Molecule `C[C@@](CO)(NCc1ccc(OCc2cccc(-c3ccc4c(c3)OCCO4)c2Cl)cc1OCc1cccc(C#N)c1)C(=O)O` [Example 1149, (S)-2-(4-(2-chloro-3-(2,3-dihydrobenzo[b][1,4]dioxin-6-yl)benzyloxy)-2-(3-cyanobenzyloxy)benzylamino)-3-hydroxy-2-methylpropanoic acid] has an IC50 of 0.6 to 10 nM. `CC(=O)NCCNCc1ccc(OCc2cccc(-c3ccc4c(c3)OCCO4)c2Cl)cc1OCc1cccc(C#N)c1` [Example 1150, N-(2-(4-(2-chloro-3-(2,3-dihydrobenzo[b][1,4]dioxin-6-yl)benzyloxy)-2-(3-cyanobenzyloxy)benzylamino)ethyl)acetamide] showed an IC50 of 10 to 100 nM. With `Cc1cc(CNCCO)c(OCc2cncc(C#N)c2)cc1OCc1cccc(-c2ccc3c(c2)OCCO3)c1Cl` [Example 1151, 5-((5-(2-chloro-3-(2,3-dihydrobenzo[b][1,4]dioxin-6-yl)benzyloxy)-2-((2-hydroxyethylamino)methyl)-4-methylphenoxy)methyl)nicotinonitrile] the IC50 was 0.6 to 10 nM. Molecule `Cc1cc(CN2CCCC[C@H]2C(=O)O)c(OCc2cncc(C#N)c2)cc1OCc1cccc(-c2ccc3c(c2)OCCO3)c1Cl` [Example 1152, (S)-1-(4-(2-chloro-3-(2,3-dihydrobenzo[b][1,4]dioxin-6-yl)benzyloxy)-2-((5-cyanopyridin-3-yl)methoxy)-5-methylbenzyl)piperidine-2-carboxylic acid] has an IC50 of 0.6 to 10 nM. `Cc1cc(CN[C@H](CO)C(=O)O)c(OCc2cncc(C#N)c2)cc1OCc1cccc(-c2ccc3c(c2)OCCO3)c1Cl` [Example 1153, (R)-2-(4-(2-chloro-3-(2,3-dihydrobenzo[b][1,4]dioxin-6-yl)benzyloxy)-2-((5-cyanopyridin-3-yl)methoxy)-5-methylbenzylamino)-3-hydroxypropanoic acid] showed an IC50 of 0.6 to 10 nM. `Cc1cc(CN[C@@](C)(CO)C(=O)O)c(OCc2cncc(C#N)c2)cc1OCc1cccc(-c2ccc3c(c2)OCCO3)c1Cl` [Example 1154, (S)-2-(4-(2-chloro-3-(2,3-dihydrobenzo[b][1,4]dioxin-6-yl)benzyloxy)-2-((5-cyanopyridin-3-yl)methoxy)-5-methylbenzylamino)-3-hydroxy-2-methylpropanoic acid] showed an IC50 of 0.6 to 10 nM. `Cc1cc(CN2CCCC[C@@H]2C(=O)O)c(OCc2cncc(C#N)c2)cc1OCc1cccc(-c2ccc3c(c2)OCCO3)c1Cl` [Example 1155, (R)-1-(4-(2-chloro-3-(2,3-dihydrobenzo[b][1,4]dioxin-6-yl)benzyloxy)-2-((5-cyanopyridin-3-yl)methoxy)-5-methylbenzyl)piperidine-2-carboxylic acid] was tested, and the IC50 was 0.6 to 10 nM. Molecule `Cc1cc(CN[C@](C)(CO)C(=O)O)c(OCc2cncc(C#N)c2)cc1OCc1cccc(-c2ccc3c(c2)OCCO3)c1Cl` [Example 1156, (R)-2-(4-(2-chloro-3-(2,3-dihydrobenzo[b][1,4]dioxin-6-yl)benzyloxy)-2-((5-cyanopyridin-3-yl)methoxy)-5-methylbenzylamino)-3-hydroxy-2-methylpropanoic acid] has an IC50 of 0.6 to 10 nM. `Cc1c(COc2cc(OCc3cccc(C#N)c3)c(CN[C@H](CO)C(=O)O)cc2Cl)cccc1-c1ccc2c(c1)OCCO2` [Example 1157, (R)-2-((5-chloro-2-((3-cyanobenzyl)oxy)-4-((3-(2,3-dihydrobenzo[b][1,4]dioxin-6-yl)-2-methylbenzyl)oxy)benzyl)amino)-3-hydroxypropanoic acid] gave an IC50 of 0.6 to 10 nM.
